Target: T1, IRAK4 (Homo sapiens, UniProt Q9NWZ3)
T1 sequence (Q9NWZ3 1-460): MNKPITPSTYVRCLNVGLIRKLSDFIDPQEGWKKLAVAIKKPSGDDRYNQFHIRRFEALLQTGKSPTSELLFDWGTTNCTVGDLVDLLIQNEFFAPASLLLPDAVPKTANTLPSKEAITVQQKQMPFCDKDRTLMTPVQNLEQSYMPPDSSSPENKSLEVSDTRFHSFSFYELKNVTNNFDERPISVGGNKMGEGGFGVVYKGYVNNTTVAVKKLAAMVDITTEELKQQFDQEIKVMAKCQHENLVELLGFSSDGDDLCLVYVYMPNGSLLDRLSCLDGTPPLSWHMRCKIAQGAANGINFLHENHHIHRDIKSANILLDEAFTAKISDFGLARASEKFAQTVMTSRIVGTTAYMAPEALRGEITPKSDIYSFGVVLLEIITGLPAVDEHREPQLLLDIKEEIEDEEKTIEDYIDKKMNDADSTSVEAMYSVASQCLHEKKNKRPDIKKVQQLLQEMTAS
Assay: IRAK-4 activity inhibition assay (Caliper)
Assay type: biochemical
Details: 37 μM ATP, 3.5 nM IRAK4

Q: For `NC(=O)C[C@H]1CCc2sc3ncnc(O[C@H]4CC[C@H](N5CCOCC5)CC4)c3c21` [Compound I-67, 2-((R)-4-(((1r,4R)-4-morpholinocyclohexyl)oxy)-6,7-dihydro-5H-cyclopenta[4,5]thieno[2,3-d]pyrimidin-5-yl)acetamide], which IC50 is on record?
A: < 5 µM

Reference: patent publication US20160193216A1 (Nimbus Iris, Inc., priority 2012, published 2016)
